#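 Results reflect a 48-hour exposure of cells in 96-well plates to compound at five concentrations. GI50: concentration for 50% inhibition of growth. TGI marks complete inhibition of growth.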
# How the values were obtained:
# Assay in all cases: DTP human tumour cell line panel, 48 h
# [1] = tested on: SK-OV-3 ovarian
# [2] = tested on: OVCAR-4 ovarian
# [3] = tested on: BT-549 breast
# [4] = tested on: HCC-2998 colon
# [5] = tested on: MALME-3M melanoma
# [6] = tested on: CCRF-CEM leukemia
# [7] = tested on: HCT-15 colon
# [8] = tested on: SW-620 colon
# [9] = tested on: SF-268 CNS
# [10] = tested on: SK-MEL-5 melanoma
# [11] = tested on: RXF 393 renal
# [12] = tested on: NCI-H23 lung
# [13] = tested on: OVCAR-5 ovarian
# [14] = tested on: SNB-19 CNS
# [15] = tested on: T-47D breast
# [16] = tested on: EKVX NSCLC
# [17] = tested on: OVCAR-8 ovarian
# [18] = tested on: SK-MEL-28 melanoma
# [19] = tested on: NCI-H226 lung
# [20] = tested on: COLO 205 colon
# [21] = tested on: K-562 leukemia
# [22] = tested on: DU-145 prostate
# [23] = tested on: LOX IMVI melanoma
# [24] = tested on: HL-60(TB) leukemia
# [25] = tested on: HS 578T breast
# [26] = tested on: ACHN renal
# [27] = tested on: SF-295 CNS
# [28] = tested on: TK-10 renal
# [29] = tested on: NCI-H522 lung
# [30] = tested on: MOLT-4 leukemia
# [31] = tested on: MDA-MB-231 breast
# [32] = tested on: U251 CNS
# [33] = tested on: HOP-62 NSCLC
# [34] = tested on: SK-MEL-2 melanoma
# [35] = tested on: M14 melanoma
# [36] = tested on: MDA-MB-435
# [37] = tested on: IGROV1 ovarian
# [38] = tested on: SR leukemia
# [39] = tested on: KM12 colon
# [40] = tested on: SN12C renal
# [41] = tested on: 786-0 renal
# [42] = tested on: RPMI-8226 leukemia
# [43] = tested on: NCI/ADR-RES ovarian
# [44] = tested on: A498 renal
# [45] = tested on: SF-539 CNS
# [46] = tested on: CAKI-1 renal
# [47] = tested on: PC-3 prostate
# [48] = tested on: UO-31 renal
# [49] = tested on: HOP-92 NSCLC
# [50] = tested on: SNB-75 CNS
# [51] = tested on: OVCAR-3 ovarian
# [52] = tested on: NCI-H460 lung
# [53] = tested on: HCT-116 colon
# [54] = tested on: HT29 colon
# [55] = tested on: A549 NSCLC
# [56] = tested on: MCF7 breast
# [57] = tested on: UACC-62 melanoma
# [58] = tested on: UACC-257 melanoma
compound,measurement,setting,value
Cc1ccc(C)c(N2CCN(c3ccncc3N)CC2)c1,GI50,[1],21.9 µM
same,TGI,[1],73.5 µM
same,GI50,[2],19.1 µM
same,TGI,[2],> 100 µM
same,GI50,[3],21.9 µM
same,TGI,[3],> 100 µM
same,GI50,[4],15.7 µM
same,TGI,[4],31.8 µM
same,GI50,[5],17.6 µM
same,TGI,[5],40.7 µM
same,GI50,[6],21.5 µM
same,TGI,[6],94.3 µM
same,GI50,[7],5.61 µM
same,TGI,[7],> 100 µM
same,GI50,[8],5.13 µM
same,TGI,[8],24.6 µM
same,GI50,[9],24.9 µM
same,TGI,[9],> 100 µM
same,GI50,[10],11.7 µM
same,TGI,[10],24.4 µM
same,GI50,[11],9.31 µM
same,TGI,[11],36.4 µM
same,GI50,[12],12.1 µM
same,TGI,[12],61 µM
same,GI50,[13],22.1 µM
same,TGI,[13],> 100 µM
same,GI50,[14],28.8 µM
same,TGI,[14],> 100 µM
same,GI50,[15],3.23 µM
same,TGI,[15],30.3 µM
same,GI50,[16],10.8 µM
same,TGI,[16],84.8 µM
same,GI50,[17],20.2 µM
same,TGI,[17],> 100 µM
same,GI50,[18],19.6 µM
same,TGI,[18],40.8 µM
same,GI50,[19],17.2 µM
same,TGI,[19],67 µM
same,GI50,[20],13.8 µM
same,TGI,[20],27.1 µM
same,GI50,[21],8.67 µM
same,TGI,[21],57.1 µM
same,GI50,[22],17.9 µM
same,TGI,[22],64.8 µM
same,GI50,[23],20.6 µM
same,TGI,[23],61.1 µM
same,GI50,[24],15.9 µM
same,TGI,[24],54.9 µM
same,GI50,[25],14.8 µM
same,TGI,[25],38.4 µM
same,GI50,[26],11.9 µM
same,TGI,[26],> 100 µM
same,GI50,[27],11.1 µM
same,TGI,[27],38.5 µM
same,GI50,[28],16.7 µM
same,TGI,[28],49.8 µM
same,GI50,[29],9.97 µM
same,TGI,[29],26.7 µM
same,GI50,[30],25.6 µM
same,TGI,[30],91.2 µM
same,GI50,[31],14.3 µM
same,TGI,[31],36.9 µM
same,GI50,[32],4.78 µM
same,TGI,[32],97.4 µM
same,GI50,[33],26.9 µM
same,TGI,[33],> 100 µM
same,GI50,[34],15.6 µM
same,TGI,[34],31.2 µM
same,GI50,[35],23 µM
same,TGI,[35],62.1 µM
same,GI50,[36],14.9 µM
same,TGI,[36],36.3 µM
same,GI50,[37],23.9 µM
same,TGI,[37],> 100 µM
same,GI50,[38],15.6 µM
same,TGI,[38],52.6 µM
same,GI50,[39],15.1 µM
same,TGI,[39],47.1 µM
same,GI50,[40],20.9 µM
same,TGI,[40],> 100 µM
same,GI50,[41],20.5 µM
same,TGI,[41],58.1 µM
same,GI50,[42],11.7 µM
same,TGI,[42],35.5 µM
same,GI50,[43],14.5 µM
same,TGI,[43],> 100 µM
same,GI50,[44],3.65 µM
same,TGI,[44],25.9 µM
same,GI50,[45],15.4 µM
same,TGI,[45],56.9 µM
same,GI50,[46],13.4 µM
same,TGI,[46],83.9 µM
same,GI50,[47],14.2 µM
same,TGI,[47],84.7 µM
same,GI50,[48],17.2 µM
same,TGI,[48],96.3 µM
same,GI50,[49],12.3 µM
same,TGI,[49],46.2 µM
same,GI50,[50],16.6 µM
same,TGI,[50],59 µM
same,GI50,[51],12.2 µM
same,TGI,[51],58.8 µM
same,GI50,[52],13.7 µM
same,TGI,[52],31.9 µM
same,GI50,[53],11.9 µM
same,TGI,[53],> 100 µM
same,GI50,[54],11.2 µM
same,TGI,[54],26.3 µM
same,GI50,[55],17.5 µM
same,TGI,[55],> 100 µM
same,GI50,[56],10.3 µM
same,TGI,[56],29.6 µM
same,GI50,[57],13.9 µM
same,TGI,[57],30.8 µM
same,GI50,[58],14.4 µM
same,TGI,[58],34.6 µM

# — PubChem BioAssay (NCI)
